In publication PMC4828684 (ACS Infectious Diseases, 2016):

How the values were obtained:
[1] = biological target: T1, S. cerevisiae Acs1 (acetyl CoA synthetase) (Saccharomyces cerevisiae, UniProt Q01574); test: Km determination in hydroxamic acid enzyme assay; type: biochemical
T1 sequence (Q01574 1-713): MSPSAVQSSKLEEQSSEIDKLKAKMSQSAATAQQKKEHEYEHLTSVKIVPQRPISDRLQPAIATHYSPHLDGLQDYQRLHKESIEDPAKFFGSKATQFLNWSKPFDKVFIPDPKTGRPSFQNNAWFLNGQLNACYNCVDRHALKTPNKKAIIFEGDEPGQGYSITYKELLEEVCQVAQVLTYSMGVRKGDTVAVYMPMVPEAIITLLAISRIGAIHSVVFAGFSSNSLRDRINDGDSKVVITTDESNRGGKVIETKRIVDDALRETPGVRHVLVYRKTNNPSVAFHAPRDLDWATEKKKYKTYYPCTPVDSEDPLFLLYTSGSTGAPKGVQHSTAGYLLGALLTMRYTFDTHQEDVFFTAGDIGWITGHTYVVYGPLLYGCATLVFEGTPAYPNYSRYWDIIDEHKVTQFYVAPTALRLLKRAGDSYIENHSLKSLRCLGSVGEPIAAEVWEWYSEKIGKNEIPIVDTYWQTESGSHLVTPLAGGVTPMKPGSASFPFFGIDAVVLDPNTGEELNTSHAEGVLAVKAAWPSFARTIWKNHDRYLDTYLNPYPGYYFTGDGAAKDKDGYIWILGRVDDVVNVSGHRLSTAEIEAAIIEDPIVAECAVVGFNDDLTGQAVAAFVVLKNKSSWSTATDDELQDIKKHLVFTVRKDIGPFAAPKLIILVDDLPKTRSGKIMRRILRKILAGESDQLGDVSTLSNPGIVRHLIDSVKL

[2] = biological target: T2, human ACCS2 (ACSS2, acetyl CoA synthetase) (Homo sapiens, UniProt Q9NR19)
T2 sequence (Q9NR19 whole entry): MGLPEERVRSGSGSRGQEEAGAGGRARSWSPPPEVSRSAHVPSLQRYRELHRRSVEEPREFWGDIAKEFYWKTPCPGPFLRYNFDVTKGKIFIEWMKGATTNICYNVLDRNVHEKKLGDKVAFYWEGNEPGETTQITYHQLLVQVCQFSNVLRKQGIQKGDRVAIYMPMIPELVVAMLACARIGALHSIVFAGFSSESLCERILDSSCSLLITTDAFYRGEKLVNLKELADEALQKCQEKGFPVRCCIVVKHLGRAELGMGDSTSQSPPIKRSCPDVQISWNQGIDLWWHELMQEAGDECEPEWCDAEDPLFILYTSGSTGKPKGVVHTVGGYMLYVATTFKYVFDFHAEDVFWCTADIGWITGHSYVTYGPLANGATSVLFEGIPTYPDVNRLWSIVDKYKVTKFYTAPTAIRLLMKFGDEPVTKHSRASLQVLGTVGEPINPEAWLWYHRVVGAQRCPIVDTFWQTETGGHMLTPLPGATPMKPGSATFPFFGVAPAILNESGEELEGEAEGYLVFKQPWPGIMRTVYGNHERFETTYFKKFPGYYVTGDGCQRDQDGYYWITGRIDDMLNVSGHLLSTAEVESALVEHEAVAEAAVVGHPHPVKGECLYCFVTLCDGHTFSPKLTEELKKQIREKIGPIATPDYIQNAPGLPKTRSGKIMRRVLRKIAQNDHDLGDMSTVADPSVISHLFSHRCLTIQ

[3] = biological target: T1, S. cerevisiae Acs1 (acetyl CoA synthetase); test: hydroxylamine-coupled; type: biochemical
[4] = biological target: T2, human ACCS2 (ACSS2, acetyl CoA synthetase); test: biochemical

Row | Compound | Km [1] [µM] | Km [2] [µM] | Ki [3] [nM] | IC50 [4] [nM]
1 | Nc1ncnc2c1ncn2[C@@H]1O[C@H](COP(=O)(O)OP(=O)(O)OP(=O)(O)O)[C@@H](O)[C@H]1O [ATP] | 900 to 1000 | 900 to 1000 |  | 
2 | NCC(=O)Nc1ccc(-n2nc(C(F)(F)F)cc2-c2ccc3c(ccc4ccccc43)c2)cc1 [AR-12] |  |  | ~2700 | < 100000
